# Assay results: publication doi:10.1101/2021.12.08.471775v2 (biorxiv, 2022)
# pKi: −log10 of the molar value.
# Biological target: α4β2Rs (rat α4β2 nAChRs) (Rattus norvegicus, UniProt P09483+P12390)
# Format: cell-based
# α4β2Rs (rat α4β2 nAChRs), sequence (P09483 31-630): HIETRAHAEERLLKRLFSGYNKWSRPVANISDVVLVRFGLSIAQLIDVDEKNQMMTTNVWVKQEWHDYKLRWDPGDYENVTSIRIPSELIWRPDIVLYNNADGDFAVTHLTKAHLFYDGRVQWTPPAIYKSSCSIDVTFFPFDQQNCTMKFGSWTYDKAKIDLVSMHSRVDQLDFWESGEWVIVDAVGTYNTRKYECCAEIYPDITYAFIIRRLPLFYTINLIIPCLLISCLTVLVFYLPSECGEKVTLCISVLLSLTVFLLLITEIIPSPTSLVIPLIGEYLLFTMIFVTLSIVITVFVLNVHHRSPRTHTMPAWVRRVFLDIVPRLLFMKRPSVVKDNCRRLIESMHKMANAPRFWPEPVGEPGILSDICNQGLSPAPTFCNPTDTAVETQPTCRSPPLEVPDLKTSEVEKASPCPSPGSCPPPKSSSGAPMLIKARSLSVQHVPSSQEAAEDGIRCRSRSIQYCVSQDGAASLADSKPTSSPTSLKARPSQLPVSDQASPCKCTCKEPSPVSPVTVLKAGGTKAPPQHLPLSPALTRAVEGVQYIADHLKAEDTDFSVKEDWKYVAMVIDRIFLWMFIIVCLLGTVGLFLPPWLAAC
# α4β2Rs (rat α4β2 nAChRs), sequence (P12390 25-500): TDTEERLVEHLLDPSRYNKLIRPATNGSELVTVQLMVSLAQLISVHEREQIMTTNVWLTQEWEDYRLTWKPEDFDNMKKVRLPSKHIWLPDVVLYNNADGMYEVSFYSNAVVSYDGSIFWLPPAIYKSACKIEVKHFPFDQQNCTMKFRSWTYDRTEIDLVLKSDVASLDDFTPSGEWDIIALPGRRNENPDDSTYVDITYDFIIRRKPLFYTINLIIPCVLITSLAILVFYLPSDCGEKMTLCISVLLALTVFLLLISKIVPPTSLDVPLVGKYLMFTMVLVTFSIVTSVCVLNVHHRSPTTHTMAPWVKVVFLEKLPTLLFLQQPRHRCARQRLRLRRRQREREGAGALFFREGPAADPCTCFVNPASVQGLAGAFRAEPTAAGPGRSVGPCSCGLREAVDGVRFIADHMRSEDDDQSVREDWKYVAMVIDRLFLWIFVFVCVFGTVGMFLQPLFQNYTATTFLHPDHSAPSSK
smiles,measurement,value
Fc1ncccc1OC[C@@H]1C=CCN1 [Nifene],pKi,9.51
